{"source": "patent US20170142962A1", "about": "“METHODS AND SOLUTIONS INCLUDING ADDITIVES AND STABILIZERS FOR KILLING OR DEACTIVATING SPORES” (EP Technologies LLC, priority 2015, published 2017)", "key": {"C. diff spores [1]": {"tested_on": "C. diff spores", "assay": "Example 1: direct DBD plasma treatment of EtOH, H2O2 or water solutions on spore-containing discs with soil", "type": "cell-based, Clostridium difficile", "settings": "DBD 30 seconds, 35% EtOH, 70% EtOH, 3% H2O2", "protocol": "In the following examples, various treatments were applied to measure the ability of plasma-activated liquids containing various additives to kill or deactivate spores from C. diff bacteria. Briefly, a volume of 10 μl of C. diff spores in sterile water (containing approximately 10^8 colony forming units (CFUs)/ml) was added onto a sterile stainless steel disc and left to dry for 30 minutes. The contaminated surfaces were then exposed to a treatment described below. After treatment, the killing or deactivation capacity of the treatment was measured by estimating the number of surviving CFUs. Estimation of surviving CFUs was determined by placing the disc in test tubes filled with a neutralizer. The test tubes were sonicated for 1 minute and vortexed for 15 seconds to fully remove spores from the surfaces. The neutralizer solution containing spores was diluted and plated on Brain Heart Infusion Agar supplemented with 0.1% Sodium Taurocholate (BHIT). The agar plates were incubated under anaerobic conditions for 36-48 hours at 37° C. CFUs were estimated based on colony counts on the agar plates following incubation. A direct plasma treatment (as shown in FIG. 1) with DBD was used for the testing. The direct DBD was created by an AC sinusoidal voltage power supply with a power scale at 15 (approximately 20 kV peak-to-peak) and a driving frequency of 20.5 kHz. […]"}, "C. diff spores [2]": {"tested_on": "C. diff spores", "assay": "Example 2: direct DBD plasma treatment of differing EtOH concentrations on spore-containing discs with soil", "type": "cell-based, Clostridium difficile", "settings": "12 μl, DBD 30 seconds", "protocol": "In the following examples, various treatments were applied to measure the ability of plasma-activated liquids containing various additives to kill or deactivate spores from C. diff bacteria. Briefly, a volume of 10 μl of C. diff spores in sterile water (containing approximately 10^8 colony forming units (CFUs)/ml) was added onto a sterile stainless steel disc and left to dry for 30 minutes. The contaminated surfaces were then exposed to a treatment described below. After treatment, the killing or deactivation capacity of the treatment was measured by estimating the number of surviving CFUs. Estimation of surviving CFUs was determined by placing the disc in test tubes filled with a neutralizer. The test tubes were sonicated for 1 minute and vortexed for 15 seconds to fully remove spores from the surfaces. The neutralizer solution containing spores was diluted and plated on Brain Heart Infusion Agar supplemented with 0.1% Sodium Taurocholate (BHIT). The agar plates were incubated under anaerobic conditions for 36-48 hours at 37° C. CFUs were estimated based on colony counts on the agar plates following incubation. A direct plasma treatment (as shown in FIG. 1) with DBD was used for the testing. […] The gap distance between the plasma reactor and the disc was 2 mm."}, "C. diff spores [3]": {"tested_on": "C. diff spores", "assay": "Example 11: plasma activated wipes used to wipe spore-containing surface", "type": "cell-based, Clostridium difficile", "settings": "mechanical removal", "protocol": "(§1) In the following examples, various treatments were applied to measure the ability of plasma-activated liquids containing various additives to kill or deactivate spores from C. diff bacteria. Briefly, a volume of 10 μl of C. diff spores in sterile water (containing approximately 10^8 colony forming units (CFUs)/ml) was added onto a sterile stainless steel disc and left to dry for 30 minutes. The contaminated surfaces were then exposed to a treatment described below. After treatment, the killing or deactivation capacity of the treatment was measured by estimating the number of surviving CFUs. Estimation of surviving CFUs was determined by placing the disc in test tubes filled with a neutralizer. The test tubes were sonicated for 1 minute and vortexed for 15 seconds to fully remove spores from the surfaces. The neutralizer solution containing spores was diluted and plated on Brain Heart Infusion Agar supplemented with 0.1% Sodium Taurocholate (BHIT). The agar plates were incubated under anaerobic conditions for 36-48 hours at 37° C. CFUs were estimated based on colony counts on the agar plates following incubation."}, "C. diff spores [4]": {"tested_on": "C. diff spores", "assay": "Example 3: direct DBD plasma treatment of H2O2 or NaNO2 solutions, spore inoculum in PBST", "type": "cell-based, Clostridium difficile", "settings": "1, 10, 100, 500 mM, 10 μl, DBD 20 seconds, two trials, NaNO2: other than at 10 mM", "protocol": "as §1\nA direct plasma treatment (as shown in FIG. 1) with DBD was used for the testing. […]"}, "[5]": {"settings": "cited from earlier work"}, "C. diff spores [6]": {"tested_on": "C. diff spores", "assay": "Example 4: direct DBD plasma treatment of acid solutions, spore inoculum in PBST with soil", "type": "cell-based, Clostridium difficile", "settings": "0.0001% to 10% acid solutions, 3 μl, DBD 20 seconds", "protocol": "as §1\nA direct plasma treatment (as shown in FIG. 1) with DBD was used for the testing. The direct DBD was created by a microsecond pulsed power supply which creates discrete voltage bursts at a repetition rate of 3.5 kHz which consist of decaying sinusoidal waveforms with a frequency of 32 kHz and a peak-to-peak voltage of approximately 20 kV. The gap distance between the plasma reactor and the disc was 2 mm. Spore inoculum for the stainless steel disc was prepared in 1×PBST with soil instead of sterile water. Citric acid, acetic acid, or HCl was added to water to produce 0.0001% to 10% acid solutions. 3 μl of each of these solutions was added to the spore-containing discs. After application, the discs were subjected to DBD treatment for 20 seconds."}, "[7]": {"settings": "cited from earlier work", "remark": "listed apart in the source"}}, "note": "Counter-ions that a name gives are not always drawn."}
{"smiles": "CCO", "note": "[EtOH, ethanol]", "values": [{"measurement": "kill or deactivation efficiency as additive in the water, versus water alone", "setting": "C. diff spores [1]", "value": "substantially increased the kill or deactivation efficiency"}, {"measurement": "killing or deactivation efficiency with increased concentration", "setting": "C. diff spores [2]", "value": "increasing killing or deactivation efficiency"}, {"measurement": "LR of wipe without plasma activation", "setting": "C. diff spores [3]", "value": "~0.7", "unit": "LR"}]}
{"smiles": "OO", "note": "[H2O2, hydrogen peroxide]", "values": [{"measurement": "kill or deactivation efficiency as additive in the water, versus water alone", "setting": "C. diff spores [1]", "value": "substantially increased the kill or deactivation efficiency"}, {"measurement": "effect of increasing the concentration on killing or deactivation efficiency", "setting": "C. diff spores [4]", "value": "increased the killing or deactivation efficiency"}, {"measurement": "OSHA permissible exposure limit", "setting": "[5]; averaged over an 8-hour work shift", "value": 1, "unit": "ppm"}, {"measurement": "AIHA ERPG-2 maximum airborne concentration", "setting": "[5]; exposure up to an hour without irreversible or serious health effects", "value": 50, "unit": "ppm"}]}
{"smiles": "Cl", "note": "[HCl, hydrochloric acid]", "values": [{"measurement": "killing or deactivation efficiency relative to water alone", "setting": "C. diff spores [6]", "value": "increased the killing or deactivation efficiency"}]}
{"smiles": "O=NO", "note": "[NaNO2, sodium nitrite]", "values": [{"measurement": "effect of increasing the concentration on killing or deactivation efficiency", "setting": "C. diff spores [4]", "value": "did not increase the killing or deactivation efficiency"}]}
{"smiles": "CC(=O)O", "note": "[acetic acid]", "values": [{"measurement": "killing or deactivation efficiency relative to water alone", "setting": "C. diff spores [6]", "value": "increased the killing or deactivation efficiency"}]}
{"smiles": "O=C(O)CC(O)(CC(=O)O)C(=O)O", "note": "[citric acid]", "values": [{"measurement": "killing or deactivation efficiency relative to water alone", "setting": "C. diff spores [6]", "value": "increased the killing or deactivation efficiency"}]}
{"smiles": "O=NOO", "note": "[peroxynitrite]", "values": [{"measurement": "half-life", "setting": "[7]", "value": "around 1 second"}]}
